Assay results published in ChEMBL document CHEMBL1141437, “Lipoperoxidation and cyclooxygenase enzyme inhibitory piperidine alkaloids from Cassia spectabilis green fruits” (J Nat Prod, 2007).

Assays:
[1] = DPPH radical scavenging activity assessed as absorption change at 60 ppm by spectrophotometry; assay type: functional
[2] = Inhibition of lipid peroxidation at 100 ppm after 21 mins; assay type: functional
[3] = target: T1, Prostaglandin G/H synthase 1 (Ovis aries) (UniProt P05979); experiment: Inhibition of ram seminal vesicle COX1 at 100 ppm; assay type: tissue-based
T1 sequence (whole entry): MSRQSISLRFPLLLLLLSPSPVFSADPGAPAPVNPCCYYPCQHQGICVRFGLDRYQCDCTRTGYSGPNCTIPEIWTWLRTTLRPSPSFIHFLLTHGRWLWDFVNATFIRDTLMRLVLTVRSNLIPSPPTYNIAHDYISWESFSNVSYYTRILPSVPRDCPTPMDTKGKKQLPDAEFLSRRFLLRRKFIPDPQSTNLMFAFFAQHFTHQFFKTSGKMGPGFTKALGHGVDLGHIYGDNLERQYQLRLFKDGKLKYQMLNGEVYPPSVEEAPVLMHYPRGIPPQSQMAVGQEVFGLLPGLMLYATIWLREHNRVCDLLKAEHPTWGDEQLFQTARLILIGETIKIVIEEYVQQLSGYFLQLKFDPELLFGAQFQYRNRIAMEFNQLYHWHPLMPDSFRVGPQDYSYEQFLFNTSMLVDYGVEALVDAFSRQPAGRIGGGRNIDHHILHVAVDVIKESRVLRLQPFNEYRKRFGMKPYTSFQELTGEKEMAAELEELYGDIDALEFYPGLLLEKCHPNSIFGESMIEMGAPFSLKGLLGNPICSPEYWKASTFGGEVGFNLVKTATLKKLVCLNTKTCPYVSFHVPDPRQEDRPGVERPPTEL

[4] = Inhibition of AAPH-induced lipid peroxidation; assay type: functional; details: dose or concentration not given here

| Structure (SMILES) | deltaA [1] [%] | inhibition [2] [%] | inhibition [3] [%] | inhibition [4] [%] |
| --- | --- | --- | --- | --- |
| C[C@@H]1O[C@@H](OC[C@H]2O[C@@H](Oc3c(-c4ccc(O)c(O)c4)oc4cc(O)cc(O)c4c3=O)[C@H](O)[C@@H](O)[C@@H]2O)[C@H](O)[C@H](O)[C@H]1O | 92 |  |  |  |
| CC(=O)CCCCCCCCCCCC[C@H]1CC[C@@H](OC(C)=O)[C@@H](C)N1 | < 10 | 75 | 58 | 50 |
| COc1cc(/C=C/C(=O)O[C@@H]2CC[C@H](CCCCCCCCCCC(C)=O)N[C@@H]2C)ccc1O | 40 |  | 33 | 50 |
| CC(=O)CCCCCCCCCCCC[C@H]1CC[C@@H](O)[C@@H](C)N1 | < 10 | 75 | 40 | 50 |
